Test results from patent publication US10040781B2, “Tank-binding kinase inhibitor compounds” (Gilead Sciences, Inc., priority 2014, dated 2018).
Where a name gives a salt, the structure may show the parent alone. Read-outs that look alike come from different tables or passages of the source.

Key:
[1] = biological target: TBK1 (Homo sapiens (Human), UniProt Q9UHD2); test: TBK1 TR-FRET enzymatic assay;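 also: phosphorylation of a biotinylated Ser/Thr peptide by purified full-length recombinant TBK1, read by TR-FRET after 240 min at 25 °C, IC50 is the geometric mean of at least four runs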
TBK1, sequence (Q9UHD2 whole entry): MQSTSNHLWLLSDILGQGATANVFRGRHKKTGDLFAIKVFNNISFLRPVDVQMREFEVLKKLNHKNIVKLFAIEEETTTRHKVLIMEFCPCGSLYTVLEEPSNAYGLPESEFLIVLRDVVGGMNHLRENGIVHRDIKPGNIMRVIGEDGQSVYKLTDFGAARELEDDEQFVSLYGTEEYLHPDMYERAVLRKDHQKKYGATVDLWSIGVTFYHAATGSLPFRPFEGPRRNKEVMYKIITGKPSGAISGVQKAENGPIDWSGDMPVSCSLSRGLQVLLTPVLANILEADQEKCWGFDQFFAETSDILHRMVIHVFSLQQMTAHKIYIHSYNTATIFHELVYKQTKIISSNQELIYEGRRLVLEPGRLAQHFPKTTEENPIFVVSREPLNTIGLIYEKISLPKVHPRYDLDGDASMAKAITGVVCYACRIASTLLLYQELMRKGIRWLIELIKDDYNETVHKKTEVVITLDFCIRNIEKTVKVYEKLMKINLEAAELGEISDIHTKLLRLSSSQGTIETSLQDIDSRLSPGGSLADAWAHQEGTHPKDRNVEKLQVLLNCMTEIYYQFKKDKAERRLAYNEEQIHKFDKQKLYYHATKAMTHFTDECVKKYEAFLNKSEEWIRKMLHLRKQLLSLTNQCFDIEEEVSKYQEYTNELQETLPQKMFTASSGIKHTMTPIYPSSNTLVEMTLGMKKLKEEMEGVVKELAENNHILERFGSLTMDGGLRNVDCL

[2] = biological target: IKKε (Homo sapiens (Human), UniProt Q14164); test: IKKε TR-FRET enzymatic assay; assay type: biochemical; conditions: read-out: IKKe IC50
IKKε, sequence (Q14164 whole entry): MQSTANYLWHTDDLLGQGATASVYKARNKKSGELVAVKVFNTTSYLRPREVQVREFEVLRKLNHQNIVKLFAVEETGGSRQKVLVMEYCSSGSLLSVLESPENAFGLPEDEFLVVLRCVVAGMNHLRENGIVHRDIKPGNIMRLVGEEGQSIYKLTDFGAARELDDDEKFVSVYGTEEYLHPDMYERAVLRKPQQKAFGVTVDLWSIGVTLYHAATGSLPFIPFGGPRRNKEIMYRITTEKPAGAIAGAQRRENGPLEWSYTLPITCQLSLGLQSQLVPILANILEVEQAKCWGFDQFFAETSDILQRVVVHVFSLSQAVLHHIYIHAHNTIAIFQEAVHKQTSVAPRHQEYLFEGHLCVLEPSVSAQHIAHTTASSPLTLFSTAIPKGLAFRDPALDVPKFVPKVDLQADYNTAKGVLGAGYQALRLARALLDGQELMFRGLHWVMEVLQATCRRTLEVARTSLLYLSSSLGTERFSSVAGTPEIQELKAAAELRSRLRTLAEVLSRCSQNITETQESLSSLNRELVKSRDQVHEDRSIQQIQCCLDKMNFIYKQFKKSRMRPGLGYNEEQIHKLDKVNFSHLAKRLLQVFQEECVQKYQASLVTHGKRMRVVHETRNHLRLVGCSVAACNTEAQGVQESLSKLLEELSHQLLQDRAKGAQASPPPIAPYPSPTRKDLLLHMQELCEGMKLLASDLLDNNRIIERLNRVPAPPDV

[3] = biological target: hJAK2 (Homo sapiens (Human), UniProt O60674); test: hJAK2 LANCE TR-FRET enzymatic assay; assay type: biochemical; conditions: read-out: JAK2 IC50
hJAK2, sequence (O60674 whole entry): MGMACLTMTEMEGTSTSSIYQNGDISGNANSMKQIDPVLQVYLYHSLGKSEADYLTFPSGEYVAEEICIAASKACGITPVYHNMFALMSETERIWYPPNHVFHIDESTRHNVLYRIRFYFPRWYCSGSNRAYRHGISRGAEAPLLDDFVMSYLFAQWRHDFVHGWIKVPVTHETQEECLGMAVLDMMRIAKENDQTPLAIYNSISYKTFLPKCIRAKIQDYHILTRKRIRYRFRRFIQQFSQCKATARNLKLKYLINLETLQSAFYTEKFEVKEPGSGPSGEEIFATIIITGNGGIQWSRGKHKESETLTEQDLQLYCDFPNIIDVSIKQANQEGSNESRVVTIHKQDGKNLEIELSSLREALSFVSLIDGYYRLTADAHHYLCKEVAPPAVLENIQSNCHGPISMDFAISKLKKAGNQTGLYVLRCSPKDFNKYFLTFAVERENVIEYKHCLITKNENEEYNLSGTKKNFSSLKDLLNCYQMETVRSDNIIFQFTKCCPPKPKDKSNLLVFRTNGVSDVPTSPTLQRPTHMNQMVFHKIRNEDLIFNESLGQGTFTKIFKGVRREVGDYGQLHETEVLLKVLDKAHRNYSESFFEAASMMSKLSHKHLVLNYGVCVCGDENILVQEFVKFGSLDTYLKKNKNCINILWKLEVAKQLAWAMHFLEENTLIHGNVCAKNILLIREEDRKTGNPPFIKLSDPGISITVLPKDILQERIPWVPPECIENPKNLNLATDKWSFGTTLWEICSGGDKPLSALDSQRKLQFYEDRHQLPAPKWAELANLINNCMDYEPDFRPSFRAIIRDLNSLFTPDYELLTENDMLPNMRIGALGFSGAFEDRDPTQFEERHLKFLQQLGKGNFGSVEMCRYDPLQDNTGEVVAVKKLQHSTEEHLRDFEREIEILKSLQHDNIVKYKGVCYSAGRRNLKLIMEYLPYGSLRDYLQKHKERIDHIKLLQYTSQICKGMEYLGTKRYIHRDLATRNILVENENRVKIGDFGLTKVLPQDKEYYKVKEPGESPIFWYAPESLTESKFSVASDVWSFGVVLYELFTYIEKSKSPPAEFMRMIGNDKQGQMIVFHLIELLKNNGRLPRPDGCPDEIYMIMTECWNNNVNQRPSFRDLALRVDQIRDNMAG

| Compound | IC50 [1] | IC50 ([2]; TR-FRET, 2×Km ATP, geometric mean of minimum four determinations) | IC50 [3] | IC50 [2] |
| --- | --- | --- | --- | --- |
| CC(N)C(=O)N1CC[C@H](Oc2ccc(-c3ncnc(Nc4ccc(N5CCN(C6COC6)CC5)cc4)n3)cc2C#N)[C@H](F)C1 (stereo in doubt) [Example 434, 2-(((3R,4S)-1-((R)-2-aminopropanoyl)-3-fluoropiperidin-4-yl)oxy)-5-(4-((4-(4-(oxetan-3-yl)piperazin-1-yl)phenyl)amino)-1,3,5-triazin-2-yl)benzonitrile] | 20 nM | 42 nM | 865 nM |  |
| N#Cc1cc(-c2ncnc(Nc3ccc(N4CCS(=O)(=O)CC4)cc3)n2)ccc1OC1CCOCC1 [Example 1, 5-(4-((4-(1,1-dioxidothiomorpholino)phenyl)amino)-1,3,5-triazin-2-yl)-2-((tetrahydro-2H-pyran-4-yl)oxy)benzonitrile] | 2 nM |  | 360 nM | 6 nM |
| CC(=O)N1CC[C@@H](Oc2ccc(-c3ncnc(Nc4ccc(N5CCN(C6COC6)CC5)cc4)n3)cc2C#N)C1 [Example 3, (R)-2-((1-acetylpyrrolidin-3-yl)oxy)-5-(4-((4-(4-(oxetan-3-yl)piperazin-1-yl)phenyl)amino)-1,3,5-triazin-2-yl)benzonitrile] | 20 nM |  | 724 nM | 99 nM |
| N#Cc1cc(-c2ncnc(Nc3ccc(N4CCN(C5COC5)CC4)cc3)n2)ccc1OC1COC1 [Example 5, 5-(4-((4-(4-(oxetan-3-yl)piperazin-1-yl)phenyl)amino)-1,3,5-triazin-2-yl)-2-(oxetan-3-yloxy)benzonitrile] | 35 nM |  | 269 nM | 101 nM |
| CC1(COc2ccc(-c3ncnc(Nc4ccc(N5CCN(C6COC6)CC5)cc4)n3)cc2C#N)COC1 [Example 6, 2-((3-methyloxetan-3-yl)methoxy)-5-(4-((4-(4-(oxetan-3-yl)piperazin-1-yl)phenyl)amino)-1,3,5-triazin-2-yl)benzonitrile] | 7 nM |  | 178 nM | 20 nM |
| COc1cc(Nc2ncnc(-c3ccc(OC4CCOCC4)c(C#N)c3)n2)ccc1N1CCN(CC(F)F)CC1 [Example 7, 5-(4-((4-(4-(2,2-difluoroethyl)piperazin-1-yl)-3-methoxyphenyl)amino)-1,3,5-triazin-2-yl)-2-((tetrahydro-2H-pyran-4-yl)oxy)benzonitrile] | 1 nM |  | 225 nM | 3 nM |
| Cn1cc(Nc2ncnc(-c3ccc(N4CCCC4)c(C#N)c3)n2)cn1 [Example 8, 5-(4-((1-methyl-1H-pyrazol-4-yl)amino)-1,3,5-triazin-2-yl)-2-(pyrrolidin-1-yl)benzonitrile] | 7 nM |  | 278 nM | 19 nM |
| Cn1cc(Nc2ncnc(-c3ccc(OC4CCOCC4)c(C#N)c3)n2)cn1 [Example 9, 5-(4-((1-methyl-1H-pyrazol-4-yl)amino)-1,3,5-triazin-2-yl)-2-((tetrahydro-2H-pyran-4-yl)oxy)benzonitrile] | 3 nM |  | 363 nM | 7 nM |
| N#Cc1cc(-c2ncnc(Nc3ccc(N4CCN(C5COC5)CC4)cc3)n2)ccc1N1CCCC1 [Example 10, 5-(4-((4-(4-(oxetan-3-yl)piperazin-1-yl)phenyl)amino)-1,3,5-triazin-2-yl)-2-(pyrrolidin-1-yl)benzonitrile] | 5 nM |  | 336 nM | 15 nM |
| CC(=O)N1CCN(c2ccc(Nc3ncnc(-c4ccc(OC5CCOCC5)c(C#N)c4)n3)cc2)CC1 [Example 11, 5-(4-((4-(4-acetylpiperazin-1-yl)phenyl)amino)-1,3,5-triazin-2-yl)-2-((tetrahydro-2H-pyran-4-yl)oxy)benzonitrile] | 1 nM |  | 224 nM | 4 nM |
| COc1cc(Nc2ncnc(-c3ccc(OC4CCOCC4)c(C#N)c3)n2)ccc1N1CCN(C2COC2)CC1 [Example 13, 5-(4-((3-methoxy-4-(4-(oxetan-3-yl)piperazin-1-yl)phenyl)amino)-1,3,5-triazin-2-yl)-2-((tetrahydro-2H-pyran-4-yl)oxy)benzonitrile] | 1 nM |  | 127 nM | 2 nM |
| C[C@H](O)C(=O)N1CCC(Oc2ccc(-c3ncnc(Nc4ccc(N5CCN(C6COC6)CC5)cc4)n3)cc2C#N)CC1 [Example 15, (S)-2-((1-(2-hydroxypropanoyl)piperidin-4-yl)oxy)-5-(4-((4-(4-(oxetan-3-yl)piperazin-1-yl)phenyl)amino)-1,3,5-triazin-2-yl)benzonitrile] | 5 nM |  | > 1000 nM | 14 nM |
| N#Cc1cc(-c2ncnc(Nc3ccc(N4CCN(C5COC5)CC4)cc3)n2)ccc1OC1CCN(C(=O)CO)CC1 [Example 16, 2-((1-(2-hydroxyacetyl)piperidin-4-yl)oxy)-5-(4-((4-(4-(oxetan-3-yl)piperazin-1-yl)phenyl)amino)-1,3,5-triazin-2-yl)benzonitrile] | 1 nM |  | 603 nM | 4 nM |
| N#Cc1cc(-c2ncnc(Nc3ccc(N4CCN(C5COC5)CC4)cc3)n2)ccc1OC1CCS(=O)(=O)CC1 [Example 17, 2-((1,1-dioxidotetrahydro-2H-thiopyran-4-yl)oxy)-5-(4-((4-(4-(oxetan-3-yl)piperazin-1-yl)phenyl)amino)-1,3,5-triazin-2-yl)benzonitrile] | 9 nM |  | 540 nM | 54 nM |
| N#Cc1cc(-c2ncnc(Nc3ccc(N4CCNCC4)cc3)n2)ccc1OC1CCOCC1 [Example 18, 5-(4-((4-(piperazin-1-yl)phenyl)amino)-1,3,5-triazin-2-yl)-2-((tetrahydro-2H-pyran-4-yl)oxy)benzonitrile, trifluoroacetic acid salt] | 1 nM |  | 271 nM | 1 nM |
| N#Cc1cc(-c2ncnc(Nc3ccc(N4CCN(C5COC5)CC4)cc3)n2)ccc1OC1CCSCC1 [Example 19, 5-(4-((4-(4-(oxetan-3-yl)piperazin-1-yl)phenyl)amino)-1,3,5-triazin-2-yl)-2-((tetrahydro-2H-thiopyran-4-yl)oxy)benzonitrile] | 1 nM |  | > 1000 nM | 4 nM |
| COc1cc(Nc2ncnc(-c3ccc(OC4CCOCC4)c(C#N)c3)n2)ccc1C1CCN(C2COC2)CC1 [Example 20, 5-(4-((3-methoxy-4-(1-(oxetan-3-yl)piperidin-4-yl)phenyl)amino)-1,3,5-triazin-2-yl)-2-((tetrahydro-2H-pyran-4-yl)oxy)benzonitrile] | 2 nM |  | > 1000 nM | 2 nM |
| COc1cc(Nc2ncnc(-c3ccc(OC4CCOCC4)c(C#N)c3)n2)ccc1C(N)=O [Example 21, 4-((4-(3-cyano-4-((tetrahydro-2H-pyran-4-yl)oxy)phenyl)-1,3,5-triazin-2-yl)amino)-2-methoxybenzamide] | 4 nM |  | > 1000 nM | 6 nM |
| COc1cc(Nc2ncnc(-c3ccc(O[C@@H]4CCN(C(=O)CO)C4)c(C#N)c3)n2)ccc1N1CCN(C2COC2)CC1 [Example 22, (R)-2-((1-(2-hydroxyacetyl)pyrrolidin-3-yl)oxy)-5-(4-((3-methoxy-4-(4-(oxetan-3-yl)piperazin-1-yl)phenyl)amino)-1,3,5-triazin-2-yl)benzonitrile] | 3 nM |  | 128 nM | 8 nM |
| C[C@H](O)C(=O)N1CCC(Oc2ccc(-c3ncnc(Nc4ccc(C5CCN(C6COC6)CC5)cc4)n3)cc2C#N)CC1 [Example 23, (S)-2-((1-(2-hydroxypropanoyl)piperidin-4-yl)oxy)-5-(4-((4-(1-(oxetan-3-yl)piperidin-4-yl)phenyl)amino)-1,3,5-triazin-2-yl)benzonitrile] | 6 nM |  | > 1000 nM | 10 nM |
| COc1cc(Nc2ncnc(-c3ccc(OC4CCOCC4)c(C#N)c3)n2)cc(OC)c1OC [Example 24, 2-((tetrahydro-2H-pyran-4-yl)oxy)-5-(4-((3,4,5-trimethoxyphenyl)amino)-1,3,5-triazin-2-yl)benzonitrile] | 1 nM |  | 602 nM | 2 nM |
| N#Cc1cc(-c2ncnc(Nc3ccc(N4CCN(C5COC5)CC4)c(F)c3)n2)ccc1OC1CCOCC1 [Example 27, 5-(4-((3-fluoro-4-(4-(oxetan-3-yl)piperazin-1-yl)phenyl)amino)-1,3,5-triazin-2-yl)-2-((tetrahydro-2H-pyran-4-yl)oxy)benzonitrile] | 2 nM |  | 988 nM | 7 nM |
| N#Cc1cc(-c2ncnc(Nc3ccc(N4CCN(C5COC5)CC4)cc3)n2)ccc1N1CCCC1=O [Example 28, 5-[4-[4-[4-(oxetan-3-yl)piperazin-1-yl]anilino]-1,3,5-triazin-2-yl]-2-(2-oxopyrrolidin-1-yl)benzonitrile] | 225 nM |  | 583 nM | 529 nM |
| COc1cc(Nc2ncnc(-c3ccc(OC4CCOCC4)c(C#N)c3)n2)ccc1OC(F)F [Example 31, 5-(4-((4-(difluoromethoxy)-3-methoxyphenyl)amino)-1,3,5-triazin-2-yl)-2-((tetrahydro-2H-pyran-4-yl)oxy)benzonitrile] | 9 nM |  | > 1000 nM | 20 nM |
| COc1cc(Nc2ncnc(-c3ccc(OC4CCOCC4)c(C#N)c3)n2)ccc1N1CCN(C(C)=O)CC1 [Example 32, 5-(4-((4-(4-acetylpiperazin-1-yl)-3-methoxyphenyl)amino)-1,3,5-triazin-2-yl)-2-((tetrahydro-2H-pyran-4-yl)oxy)benzonitrile] | 1 nM |  | 68 nM | 2 nM |
| COc1cc(Nc2ncnc(-c3ccc(OC4CCS(=O)(=O)CC4)c(C#N)c3)n2)ccc1N1CCN(C2COC2)CC1 [Example 33, 2-((1,1-dioxidotetrahydro-2H-thiopyran-4-yl)oxy)-5-(4-((3-methoxy-4-(4-(oxetan-3-yl)piperazin-1-yl)phenyl)amino)-1,3,5-triazin-2-yl)benzonitrile] | 4 nM |  | 59 nM | 18 nM |
